Assay results as given in patent US7811797B2, “α-isomaltosylglucosaccharide-forming enzyme, process and uses of the same” (Kabushiki Kaisha Hayashibara Seibutsu Kagaku Kenkyujo, priority 2000, dated 2010).

Columns and labels:
Parameters in all cases: key: −: it showed no change; +: it showed a slight reduction of the color spot of the substrate and the formation of other reaction product; ++: it showed a high reduction of the color spot of the substrate and the formation of other reaction product; +++: it showed a substantial disappearance of the substrate spot and the formation of other reaction product
[1] = system: α-isomaltosylglucosaccharide-forming enzyme; assay: Action on saccharides (substrates), Enzyme of Strain C9; type: biochemical, Bacillus globisporus C9; conditions: two units/g substrate, substrate 2% (w/v), 30° C., pH 6.0, 24 hours, TLC
Protocol: (§1) It was tested whether saccharides can be used as substrates for the α-isomaltosylglucosaccharide-forming enzyme. For the purpose, a solution of maltose, maltotriose, maltotetraose, maltopentaose, maltohexaose, maltoheptaose, isomaltose, isomaltotriose, panose, isopanose, trehalose, kojibiose, nigerose, neotrehalose, cellobiose, gentibiose, maltitol, maltotriitol, lactose, sucrose, erlose, selaginose, maltosyl glucoside, or isomaltosyl glucoside was prepared.
(§2) To each of the above solutions was added two units/g substrate of a purified specimen of α-isomaltosylglucosaccharide-forming enzyme from either Bacillus globisporus C9 obtained by the method in Experiment 4-2, Bacillus globisporus C11 obtained by the method in Experiment 7-2, Bacillus globisporus N75 obtained by the method in Experiment 11-2, or Arthrobacter globiformis A19 obtained by the method in Experiment 15-2, and the resulting each solution was adjusted to give a substrate concentration of 2% (w/v) and incubated at 30° C. and pH 6.0, except for using pH 8.4 for the enzyme from Arthrobacter globiformis A19, for 24 hours. The enzyme solutions before and after the enzymatic reactions were respectively analyzed on TLC disclosed in Experiment 1 to confirm whether the enzymes acted on these substrates.

[2] = system: α-isomaltosylglucosaccharide-forming enzyme; assay: Action on saccharides (substrates), Enzyme of Strain C11; type: biochemical, Bacillus globisporus C11; conditions: two units/g substrate, substrate 2% (w/v), 30° C., pH 6.0, 24 hours, TLC
Protocol: as §1, §2

[3] = system: α-isomaltosylglucosaccharide-forming enzyme; assay: Action on saccharides (substrates), Enzyme of Strain N75; type: biochemical, Bacillus globisporus N75; conditions: two units/g substrate, substrate 2% (w/v), 30° C., pH 6.0, 24 hours, TLC
Protocol: as §1, §2

[4] = system: α-isomaltosylglucosaccharide-forming enzyme; assay: Action on saccharides (substrates), Enzyme of Strain A19; type: biochemical, Arthrobacter globiformis A19; conditions: two units/g substrate, substrate 2% (w/v), 30° C., pH 8.4, 24 hours, TLC
Protocol: as §1, §2

## OC[C@H]1O[C@H](O[C@H]2[C@H](O)[C@@H](CO)OC(O)[C@@H]2O)[C@H](O)[C@@H](O)[C@@H]1O (stereo partly shown) [Nigerose]
[1]
  Enzymatic action, Enzyme of Strain C9: +
[2]
  Enzymatic action, Enzyme of Strain C11: +
[3]
  Enzymatic action, Enzyme of Strain N75: +
[4]
  Enzymatic action, Enzyme of Strain A19: +

## Isomaltosyl glucoside
[1]
  Enzymatic action, Enzyme of Strain C9: −
[2]
  Enzymatic action, Enzyme of Strain C11: −
[3]
  Enzymatic action, Enzyme of Strain N75: −
[4]
  Enzymatic action, Enzyme of Strain A19: −

## Maltohexaose
[1]
  Enzymatic action, Enzyme of Strain C9: +++
[2]
  Enzymatic action, Enzyme of Strain C11: +++
[3]
  Enzymatic action, Enzyme of Strain N75: +++
[4]
  Enzymatic action, Enzyme of Strain A19: +++

## OC[C@H]1O[C@@H](O[C@H]2O[C@H](CO)[C@@H](O)[C@H](O)[C@H]2O)[C@H](O)[C@@H](O)[C@@H]1O [Neotrehalose]
[1]
  Enzymatic action, Enzyme of Strain C9: +
[2]
  Enzymatic action, Enzyme of Strain C11: +
[3]
  Enzymatic action, Enzyme of Strain N75: +
[4]
  Enzymatic action, Enzyme of Strain A19: +

## OC[C@@H](O)[C@@H](O[C@H]1O[C@H](CO)[C@@H](O[C@H]2O[C@H](CO)[C@@H](O)[C@H](O)[C@H]2O)[C@H](O)[C@H]1O)[C@H](O)[C@@H](O)CO [Maltotriitol]
[1]
  Enzymatic action, Enzyme of Strain C9: +
[2]
  Enzymatic action, Enzyme of Strain C11: +
[3]
  Enzymatic action, Enzyme of Strain N75: +
[4]
  Enzymatic action, Enzyme of Strain A19: +

## Maltotriose
[1]
  Enzymatic action, Enzyme of Strain C9: ++
[2]
  Enzymatic action, Enzyme of Strain C11: ++
[3]
  Enzymatic action, Enzyme of Strain N75: ++
[4]
  Enzymatic action, Enzyme of Strain A19: ++

## OC[C@H]1O[C@H](O[C@H]2C(O)O[C@H](CO)[C@@H](O)[C@@H]2O)[C@H](O)[C@@H](O)[C@@H]1O (stereo partly shown) [Kojibiose]
[1]
  Enzymatic action, Enzyme of Strain C9: +
[2]
  Enzymatic action, Enzyme of Strain C11: +
[3]
  Enzymatic action, Enzyme of Strain N75: +
[4]
  Enzymatic action, Enzyme of Strain A19: +

## OC[C@H]1O[C@H](O[C@H]2[C@H](O)[C@@H](O)[C@@H](OC[C@H]3OC(O)[C@H](O)[C@@H](O)[C@@H]3O)O[C@@H]2CO)[C@H](O)[C@@H](O)[C@@H]1O (stereo partly shown) [Isopanose]
[1]
  Enzymatic action, Enzyme of Strain C9: ++
[2]
  Enzymatic action, Enzyme of Strain C11: ++
[3]
  Enzymatic action, Enzyme of Strain N75: ++
[4]
  Enzymatic action, Enzyme of Strain A19: ++

## OC[C@H]1O[C@H](OC[C@H]2O[C@H](O[C@H]3[C@H](O)[C@@H](O)C(O)O[C@@H]3CO)[C@H](O)[C@@H](O)[C@@H]2O)[C@H](O)[C@@H](O)[C@@H]1O (stereo partly shown) [Panose]
[1]
  Enzymatic action, Enzyme of Strain C9: −
[2]
  Enzymatic action, Enzyme of Strain C11: −
[3]
  Enzymatic action, Enzyme of Strain N75: −
[4]
  Enzymatic action, Enzyme of Strain A19: −

## OC[C@H]1O[C@H](O[C@H]2[C@H](O)[C@@H](O)[C@@H](O[C@H]3[C@H](O)[C@@H](O)[C@@H](O[C@H]4[C@H](O)[C@@H](O)C(O)O[C@@H]4CO)O[C@@H]3CO)O[C@@H]2CO)[C@H](O)[C@@H](O)[C@@H]1O (stereo partly shown) [Maltotetraose]
[1]
  Enzymatic action, Enzyme of Strain C9: +++
[2]
  Enzymatic action, Enzyme of Strain C11: +++
[3]
  Enzymatic action, Enzyme of Strain N75: +++
[4]
  Enzymatic action, Enzyme of Strain A19: +++

## Maltopentaose
[1]
  Enzymatic action, Enzyme of Strain C9: +++
[2]
  Enzymatic action, Enzyme of Strain C11: +++
[3]
  Enzymatic action, Enzyme of Strain N75: +++
[4]
  Enzymatic action, Enzyme of Strain A19: +++

## OC[C@H]1O[C@@](CO)(O[C@H]2O[C@H](CO)[C@@H](O[C@H]3O[C@H](CO)[C@@H](O)[C@H](O)[C@H]3O)[C@H](O)[C@H]2O)[C@@H](O)[C@@H]1O [Erlose]
[1]
  Enzymatic action, Enzyme of Strain C9: +
[2]
  Enzymatic action, Enzyme of Strain C11: +
[3]
  Enzymatic action, Enzyme of Strain N75: +
[4]
  Enzymatic action, Enzyme of Strain A19: +

## OC[C@H]1O[C@H](O[C@H]2O[C@H](CO)[C@@H](O[C@H]3O[C@H](CO)[C@@H](O)[C@H](O)[C@H]3O)[C@H](O)[C@H]2O)[C@H](O)[C@@H](O)[C@@H]1O [Maltosyl glucoside]
[1]
  Enzymatic action, Enzyme of Strain C9: ++
[2]
  Enzymatic action, Enzyme of Strain C11: ++
[3]
  Enzymatic action, Enzyme of Strain N75: ++
[4]
  Enzymatic action, Enzyme of Strain A19: ++

## Maltoheptaose
[1]
  Enzymatic action, Enzyme of Strain C9: +++
[2]
  Enzymatic action, Enzyme of Strain C11: +++
[3]
  Enzymatic action, Enzyme of Strain N75: +++
[4]
  Enzymatic action, Enzyme of Strain A19: +++

## OC[C@H]1O[C@H](O[C@H]2O[C@H](CO)[C@@H](O)[C@H](O)[C@H]2O[C@H]2O[C@H](CO)[C@@H](O)[C@H](O)[C@H]2O)[C@H](O)[C@@H](O)[C@@H]1O [Selaginose]
[1]
  Enzymatic action, Enzyme of Strain C9: −
[2]
  Enzymatic action, Enzyme of Strain C11: −
[3]
  Enzymatic action, Enzyme of Strain N75: −
[4]
  Enzymatic action, Enzyme of Strain A19: −

## OC[C@H]1O[C@H](O[C@H]2[C@H](O)[C@@H](O)[C@H](O)O[C@@H]2CO)[C@H](O)[C@@H](O)[C@@H]1O [Maltose]
[1]
  Enzymatic action, Enzyme of Strain C9: +
[2]
  Enzymatic action, Enzyme of Strain C11: +
[3]
  Enzymatic action, Enzyme of Strain N75: +
[4]
  Enzymatic action, Enzyme of Strain A19: +
